From patent publication US6890736B1, “Methods for producing proteins in cultured cells” (Immunex Corporation, priority 2002, dated 2005)
Several values for one entry are separate records, joined by “and”; a condition that tells them apart may be missing. Equal entries are not always repeated.

Assays:
[1] = test system: cell line 25H9 (CHO cells that produce IL-1R-II protein); assay: Example 2: optimization of temperature and decitabine concentration, IL-1R-II production; assay type: cell-based, Chinese hamster
Method: (§1) About 2×10^6 cells of cell line 25H9 were inoculated into 30 milliliters of serum-free medium and incubated at the temperatures indicated in Table 1 in vented shake flasks. At the times indicated in Table 1, samples were taken from each flask to determine IL-1R-II titer, cell number, and cell viability. IL-1R-II protein titer was determined by ELISA assay. Cell number was determined by counting cells in a hemocytometer. Cell viability was determined by trypan blue staining and counting stained cells in a hemocytometer. Cumulative viable cell density (CVCD) is the area under the curve of a plot of the viable cell density versus time (in units of cells/ml/day). Productivity (pg of IL-1R-II/cell/day) was determined by dividing the protein titer on a particular day by the CVCD on the same day. Cells were fed with amino acids on days 2 and 5, and dextrose was added periodically in order to maintain levels above 2.0 g/L. All samples were done in duplicate, and the data shown is an average value.
(§2) To determine an optimum temperature and decitabine concentration, three temperatures (30° C., 31° C., and 32° C.) and three decitabine concentrations (10 μM, 15 μM, and 20 μM) were tested. A 31° C. culture containing 0.5 mM sodium butyrate was grown as a control. […] See e.g. International Application Nos. WO 89/06686 and WO 87/05626. The experiment was performed as in Example 1 except that the inducer concentrations, temperatures, and days at which data was collected are as indicated in Table 2 and FIG. 1.

[2] = test system: cell line 25H9 (CHO cells); assay: Example 2: cell number and viability; assay type: cell-based, Chinese hamster
Method: as §1, §2

[3] = 30° C., 10 μM decitabine, day 0
[4] = 30° C., 10 μM decitabine, day 3
[5] = 30° C., 10 μM decitabine, day 6
[6] = 30° C., 10 μM decitabine, day 8
[7] = 30° C., 15 μM decitabine, day 0
[8] = 30° C., 15 μM decitabine, day 3
[9] = 30° C., 15 μM decitabine, day 6
[10] = 30° C., 15 μM decitabine, day 8
[11] = 30° C., 20 μM decitabine, day 0
[12] = 30° C., 20 μM decitabine, day 3
[13] = 30° C., 20 μM decitabine, day 6
[14] = 30° C., 20 μM decitabine, day 8
[15] = 31° C., 10 μM decitabine, day 0
[16] = 31° C., 10 μM decitabine, day 3
[17] = 31° C., 10 μM decitabine, day 6
[18] = 31° C., 10 μM decitabine, day 8
[19] = 31° C., 15 μM decitabine, day 0
[20] = 31° C., 15 μM decitabine, day 3
[21] = 31° C., 15 μM decitabine, day 6
[22] = 31° C., 15 μM decitabine, day 8
[23] = 31° C., 20 μM decitabine, day 0
[24] = 31° C., 20 μM decitabine, day 3
[25] = 31° C., 20 μM decitabine, day 6
[26] = 31° C., 20 μM decitabine, day 8
[27] = 32° C., 10 μM decitabine, day 0
[28] = 32° C., 10 μM decitabine, day 3
[29] = 32° C., 10 μM decitabine, day 6
[30] = 32° C., 10 μM decitabine, day 8
[31] = 32° C., 15 μM decitabine, day 0
[32] = 32° C., 15 μM decitabine, day 3
[33] = 32° C., 15 μM decitabine, day 6
[34] = 32° C., 15 μM decitabine, day 8
[35] = 32° C., 20 μM decitabine, day 0
[36] = 32° C., 20 μM decitabine, day 3
[37] = 32° C., 20 μM decitabine, day 6
[38] = 32° C., 20 μM decitabine, day 8

## Nc1ncn([C@H]2C[C@H](O)[C@@H](CO)O2)c(=O)n1 [decitabine, 5-aza-2′-deoxycytidine]
[1]; 10 μM decitabine, 8 days
  IL-1R-II produced at 31° C. versus 30° C. or 32° C. (FIG. 1): more IL-1R-II
[1]; 30° C.
  IL-1R-II titer in 20 μM versus 10 μM or 15 μM decitabine: higher titer of IL-1R-II
[1]; [3]
  IL1R-II Titer: 0.0 µg/mL
[1]; [4]
  IL1R-II Titer: 68.2 µg/mL
  Productivity: 9.2 pg IL-1R-II/cell/day
[1]; [5]
  IL1R-II Titer: 156.5 µg/mL
  Productivity: 10.9 pg IL-1R-II/cell/day
[1]; [6]
  IL1R-II Titer: 260.5 µg/mL
  Productivity: 14.4 pg IL-1R-II/cell/day
[1]; [7]
  IL1R-II Titer: 0.0 µg/mL
[1]; [8]
  IL1R-II Titer: 77.2 µg/mL
  Productivity: 11.3 pg IL-1R-II/cell/day
[1]; [9]
  IL1R-II Titer: 173.0 µg/mL
  Productivity: 12.4 pg IL-1R-II/cell/day
[1]; [10]
  IL1R-II Titer: 283.0 µg/mL
[1]; [11]
  IL1R-II Titer: 0.0 µg/mL
[1]; [12]
  IL1R-II Titer: 83.6 µg/mL
  Productivity: 10.6 pg IL-1R-II/cell/day
[1]; [13]
  IL1R-II Titer: 219.0 µg/mL
  Productivity: 13.4 pg IL-1R-II/cell/day
[1]; [14]
  IL1R-II Titer: 346.0 µg/mL
  Productivity: 16.9 pg IL-1R-II/cell/day
[1]; 31° C., 10 μM decitabine, 8 days
  IL-1R-II titer versus culture containing 0.5 mM sodium butyrate: higher titer
[1]; [15]
  IL1R-II Titer: 0.0 µg/mL
[1]; [16]
  IL1R-II Titer: 164.0 µg/mL
  Productivity: 18.8 pg IL-1R-II/cell/day
[1]; [17]
  IL1R-II Titer: 448.5 µg/mL
  Productivity: 21.3 pg IL-1R-II/cell/day
[1]; [18]
  IL1R-II Titer: 1087 µg/mL and 1087.0 µg/mL
  Productivity: 38.1 pg IL-1R-II/cell/day
[1]; [19]
  IL1R-II Titer: 0.0 µg/mL
[1]; [20]
  IL1R-II Titer: 174.0 µg/mL
  Productivity: 22.0 pg IL-1R-II/cell/day
[1]; [21]
  IL1R-II Titer: 440.0 µg/mL
  Productivity: 22.9 pg IL-1R-II/cell/day
[1]; [22]
  IL1R-II Titer: 718.0 µg/mL
  Productivity: 27.8 pg IL-1R-II/cell/day
[1]; [23]
  IL1R-II Titer: 0.0 µg/mL
[1]; [24]
  IL1R-II Titer: 162.0 µg/mL
  Productivity: 17.6 pg IL-1R-II/cell/day
[1]; [25]
  IL1R-II Titer: 426.0 µg/mL
  Productivity: 19.6 pg IL-1R-II/cell/day
[1]; [26]
  IL1R-II Titer: 774.5 µg/mL
  Productivity: 27.1 pg IL-1R-II/cell/day
[1]; 31° C., all cultures grown in decitabine
  productivity on a per cell basis versus control culture grown in butyrate: comparable to, and in some cases greater than
[1]; 32° C.
  IL-1R-II produced in 10 μM versus 15 μM or 20 μM decitabine: produced more IL-1R-II
[1]; [27]
  IL1R-II Titer: 0.0 µg/mL
[1]; [28]
  IL1R-II Titer: 186.0 µg/mL
  Productivity: 23.1 pg IL-1R-II/cell/day
[1]; [29]
  IL1R-II Titer: 407.0 µg/mL
  Productivity: 21.5 pg IL-1R-II/cell/day
[1]; [30]
  IL1R-II Titer: 610.5 µg/mL
  Productivity: 24.5 pg IL-1R-II/cell/day
[1]; [31]
  IL1R-II Titer: 0.0 µg/mL
[1]; [32]
  IL1R-II Titer: 189.0 µg/mL
  Productivity: 23.5 pg IL-1R-II/cell/day
[1]; [33]
  IL1R-II Titer: 410.0 µg/mL
  Productivity: 22.5 pg IL-1R-II/cell/day
[1]; [34]
  IL1R-II Titer: 478.0 µg/mL
[1]; [35]
  IL1R-II Titer: 0.0 µg/mL
[1]; [36]
  IL1R-II Titer: 184.5 µg/mL
  Productivity: 22.2 pg IL-1R-II/cell/day
[1]; [37]
  IL1R-II Titer: 492.0 µg/mL
  Productivity: 26.3 pg IL-1R-II/cell/day
[1]; [38]
  IL1R-II Titer: 488.5 µg/mL
  Productivity: 20.7 pg IL-1R-II/cell/day
[2]; [3]
  Cumulative Viable Cell Density: 0 mL⁻¹ day⁻¹
  Viable Cell Density: 2e+06 mL⁻¹
[2]; [4]
  Cumulative Viable Cell Density: 7.4e+06 mL⁻¹ day⁻¹
  Viable Cell Density: 3e+06 mL⁻¹
[2]; [5]
  Cumulative Viable Cell Density: 1.43e+07 mL⁻¹ day⁻¹
  Viable Cell Density: 1.7e+06 mL⁻¹
[2]; [6]
  Cumulative Viable Cell Density: 1.81e+07 mL⁻¹ day⁻¹
  Viable Cell Density: 2.1e+06 mL⁻¹
[2]; [7]
  Cumulative Viable Cell Density: 0 mL⁻¹ day⁻¹
  Viable Cell Density: 2e+06 mL⁻¹
[2]; [8]
  Cumulative Viable Cell Density: 6.8e+06 mL⁻¹ day⁻¹
  Viable Cell Density: 2.6e+06 mL⁻¹
[2]; [9]
  Cumulative Viable Cell Density: 1.4e+07 mL⁻¹ day⁻¹
  Viable Cell Density: 2.2e+06 mL⁻¹
[2]; [10]
  Cumulative Viable Cell Density: 1.81e+07 mL⁻¹ day⁻¹
  Viable Cell Density: 1.9e+06 mL⁻¹
[2]; [11]
  Cumulative Viable Cell Density: 0 mL⁻¹ day⁻¹
  Viable Cell Density: 2e+06 mL⁻¹
[2]; [12]
  Cumulative Viable Cell Density: 7.9e+06 mL⁻¹ day⁻¹
  Viable Cell Density: 3.3e+06 mL⁻¹
[2]; [13]
  Cumulative Viable Cell Density: 1.63e+07 mL⁻¹ day⁻¹
  Viable Cell Density: 2.3e+06 mL⁻¹
[2]; [14]
  Cumulative Viable Cell Density: 2.04e+07 mL⁻¹ day⁻¹
  Viable Cell Density: 1.8e+06 mL⁻¹
[2]; [15]
  Cumulative Viable Cell Density: 0 mL⁻¹ day⁻¹
  Viable Cell Density: 2e+06 mL⁻¹
[2]; [16]
  Cumulative Viable Cell Density: 8.7e+06 mL⁻¹ day⁻¹
  Viable Cell Density: 3.9e+06 mL⁻¹
[2]; [17]
  Cumulative Viable Cell Density: 2.1e+07 mL⁻¹ day⁻¹
  Viable Cell Density: 4.3e+06 mL⁻¹
[2]; [18]
  Cumulative Viable Cell Density: 2.85e+07 mL⁻¹ day⁻¹
  Viable Cell Density: 3.2e+06 mL⁻¹
[2]; [19]
  Cumulative Viable Cell Density: 0 mL⁻¹ day⁻¹
  Viable Cell Density: 2e+06 mL⁻¹
[2]; [20]
  Cumulative Viable Cell Density: 7.9e+06 mL⁻¹ day⁻¹
  Viable Cell Density: 3.3e+06 mL⁻¹
[2]; [21]
  Cumulative Viable Cell Density: 1.92e+07 mL⁻¹ day⁻¹
  Viable Cell Density: 4.2e+06 mL⁻¹
[2]; [22]
  Cumulative Viable Cell Density: 2.58e+07 mL⁻¹ day⁻¹
  Viable Cell Density: 2.4e+06 mL⁻¹
[2]; [23]
  Cumulative Viable Cell Density: 0 mL⁻¹ day⁻¹
  Viable Cell Density: 2e+06 mL⁻¹
[2]; [24]
  Cumulative Viable Cell Density: 9.2e+06 mL⁻¹ day⁻¹
  Viable Cell Density: 4.2e+06 mL⁻¹
[2]; [25]
  Cumulative Viable Cell Density: 2.17e+07 mL⁻¹ day⁻¹
  Viable Cell Density: 4.2e+06 mL⁻¹
[2]; [26]
  Cumulative Viable Cell Density: 2.86e+07 mL⁻¹ day⁻¹
  Viable Cell Density: 2.7e+06 mL⁻¹
[2]; [27]
  Cumulative Viable Cell Density: 0 mL⁻¹ day⁻¹
  Viable Cell Density: 2e+06 mL⁻¹
[2]; [28]
  Cumulative Viable Cell Density: 8e+06 mL⁻¹ day⁻¹
  Viable Cell Density: 3.4e+06 mL⁻¹
[2]; [29]
  Cumulative Viable Cell Density: 1.9e+07 mL⁻¹ day⁻¹
  Viable Cell Density: 3.9e+06 mL⁻¹
[2]; [30]
  Cumulative Viable Cell Density: 2.49e+07 mL⁻¹ day⁻¹
  Viable Cell Density: 2.1e+06 mL⁻¹
[2]; [31]
  Cumulative Viable Cell Density: 0 mL⁻¹ day⁻¹
  Viable Cell Density: 2e+06 mL⁻¹
[2]; [32]
  Cumulative Viable Cell Density: 8e+06 mL⁻¹ day⁻¹
  Viable Cell Density: 3.4e+06 mL⁻¹
[2]; [33]
  Cumulative Viable Cell Density: 1.82e+07 mL⁻¹ day⁻¹
  Viable Cell Density: 3.4e+06 mL⁻¹
[2]; [34]
  Cumulative Viable Cell Density: 2.41e+07 mL⁻¹ day⁻¹
  Viable Cell Density: 2.5e+06 mL⁻¹
[2]; [35]
  Cumulative Viable Cell Density: 0 mL⁻¹ day⁻¹
  Viable Cell Density: 2e+06 mL⁻¹
[2]; [36]
  Cumulative Viable Cell Density: 8.3e+06 mL⁻¹ day⁻¹
  Viable Cell Density: 3.6e+06 mL⁻¹
[2]; [37]
  Cumulative Viable Cell Density: 1.87e+07 mL⁻¹ day⁻¹
  Viable Cell Density: 3.3e+06 mL⁻¹
[2]; [38]
  Cumulative Viable Cell Density: 2.36e+07 mL⁻¹ day⁻¹
  Viable Cell Density: 1.6e+06 mL⁻¹
